Results published in publication PMC6934184, “Selective DNA-PKcs inhibition extends the therapeutic index of localized radiotherapy and chemotherapy” (The Journal of Clinical Investigation, 2019).

Target: T1, ABL1 G250E (Homo sapiens, UniProt P00519, G250E)
T1 construct: purchased Thermo Fisher Scientific (Life Technologies) SelectScreen
Assay: SelectScreen Z'LYTE
Assay type: biochemical
Procedure, shortened: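 Percent values come from Thermo SelectScreen profiling of NU5455, combining activity and binding assays. CSF1R was run in Z'LYTE format at Km app ATP, and CAMK1 in Adapta format with ATP listed at 10.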

Work on `CN(C(=O)CN1CCOCC1)c1ccc2sc3c(-c4cccc5c(=O)cc(N6CC7CCC(C6)O7)oc45)cccc3c2c1` [NU5455] yielded an inhibition at 1 µM of -8.5%.
